Measurements taken from patent US8124581B2, “Methods for treating breast cancer using NRIF3 related molecules” (New York University, priority 2004, dated 2012).
“Also recorded” adds a separate entry of the source. Where a SMILES comes first, the peptide text is derived from it. The star is where a group is joined. Cbz = O=C(OCc1ccccc1)*; CH2F = FC*

Columns and labels:
T-47D cells [1] = test: Modulation of NRIF3- or DD1-mediated apoptosis in T-47D cells (TUNEL); format: cell-based, human
Method: (§1) Cell culture and transfection conditions. All breast cancer cell lines were maintained in DMEM (GIBCO-BRL, Life Technologies) supplemented with 10% fetal bovine serum (FBS). Other cells were cultured in DMEM supplemented with either 10% FBS or 10% Hyclone defined/supplemented bovine calf serum. For most of the transient transfections, T-47D cells were plated at a density of 3×10^4 cells/well on coverslips in 24-well tissue culture plates. About 20 h later, the cells were transfected with indicated plasmid(s) by Genefect transfection reagent (Molecula, USA) according to manufacturer's protocol. Generally, the amount of plasmids used in transfections was the following: GFP or GFP-fusion 300-500 ng, Bcl-2 or Bcl-xL 1-1.5 μg, AIF-GFP 500 ng, Gal4-DD1, GAl4-DD3 or Gal4 control 0.5-1 μg. After transfection, cells were incubated in DMEM/10% FBS medium for 5 h to 24 h before being harvested and processed for appropriate analyses. Transient transfection of other breast cancer cell lines were carried out similarly, except that the transfection reagent used was Lipofectamine 2000 (Life technologies). All other cells were transfected using Geneporter 2 (Gene Therapy Systems). When indicated, the following compounds were included in the medium: all-trans retinoic acid (100 nM), etopside (100 μM), zVAD-fmk (100 μM), zVDVAD-fmk (20 μM), TNFα (10 ng/ml) and cycloheximide (10 μg/ml).
siRNA studies. A small interference RNA (siRNA) duplex that efficiently silences human caspase-2 expression has been previously described (27), and was purchased from Dharmacon. The siRNA was dissolved at 20 pmol/μl in H2O. T-47D cells were plated at the density of 1.5×10^5 cells/well in 6-well plates the day before being transfected with siRNA. Transfection was carried out using Oligofectamine (Invitrogen), with 12 μl of dissolved siRNA and 12 μl of Oligofectamine reagent. Cells were fed with additional DMEM/10% FBS the second day, and harvested about 42 h after siRNA transfection. […] The harvested cells were then re-plated on cover-slips in 24-well plates as described earlier, and incubated for a few hours to let attachment occur. Cells were then transfected with the indicated GFP or GFP-fusion vectors as described earlier or treated with etoposide (100 μM). Cells were harvested about 20-24 h later and processed for appropriate assays. To document caspase-2 knock down, total lysates from siRNA transfected or control cells were quantified for protein concentrations. Equal amount of proteins were then subjected to SDS-PAGE, followed by Western analysis using a monoclonal antibody against caspase-2 (11B4, from Alexis).
Apoptosis assays. Cells plated on cover-slips in 24-well tissue culture plates were transfected and/or treated with appropriate compounds as indicated. Generally, cells were harvested within 20-24 h and processed for TUNEL and/or Annexin V assays. For Annexin V assay, cells were washed 3× with PBS and assayed using ApoAlert Nitric Oxide/Annexin V Dual Sensor Kit (BD Biosciences, USA) according to manufacturer's protocol. […] For quantitative analysis, fields consisting of at least several hundred cells were scanned, and a number of representative fields were photographed using GFP and rhodamine filters. Green and red cells from the same field were then counted. Generally, about one hundred of total green cells were counted for each data point. The percent of green cells counted that are also red were then calculated.

HeLa cells [2] = test: Apoptosis of HeLa cells treated with TNFα and cycloheximide; format: cell-based; conditions: same dose (100 uM); data not shown
Method: as §1

T-47D cells [3] = test: TUNEL apoptosis assay of transfected T-47D cells; format: cell-based, human; conditions: T-47D cells transfected with expression vector
Method: as §1, with “Transient transfection of other breast cancer cell lines were carried out similarly, except that the transfection reagent used was Lipofectamine 2000 (Life technologies). All other cells were transfected using Geneporter 2 (Gene Therapy Systems). When indicated, the following compounds were included in the medium: all-trans retinoic acid (100 nM), etopside (100 μM), zVAD-fmk (100 μM), zVDVAD-fmk (20 μM), TNFα (10 ng/ml) and cycloheximide (10 μg/ml).” left out
(§2) Apoptosis assays. […] For quantitative analysis, fields consisting of at least several hundred cells were scanned, and a number of representative fields were photographed using GFP and rhodamine filters. Green and red cells from the same field were then counted. Generally, about one hundred of total green cells were counted for each data point. The percent of green cells counted that are also red were then calculated.

AIF-GFP = AIF-GFP translocation from mitochondria to nucleus in T-47D cells; format: cell-based, human; conditions: as early as 5 h after transfection
Method: as §1, with “Transient transfection of other breast cancer cell lines were carried out similarly, except that the transfection reagent used was Lipofectamine 2000 (Life technologies). All other cells were transfected using Geneporter 2 (Gene Therapy Systems). When indicated, the following compounds were included in the medium: all-trans retinoic acid (100 nM), etopside (100 μM), zVAD-fmk (100 μM), zVDVAD-fmk (20 μM), TNFα (10 ng/ml) and cycloheximide (10 μg/ml).” left out
as §2

MCF-7 cells = test: TUNEL apoptosis assay of transfected MCF-7 cells; format: cell-based, human; conditions: MCF-7 (ER+)
Method: as §1, with “Transient transfection of other breast cancer cell lines were carried out similarly, except that the transfection reagent used was Lipofectamine 2000 (Life technologies). All other cells were transfected using Geneporter 2 (Gene Therapy Systems). When indicated, the following compounds were included in the medium: all-trans retinoic acid (100 nM), etopside (100 μM), zVAD-fmk (100 μM), zVDVAD-fmk (20 μM), TNFα (10 ng/ml) and cycloheximide (10 μg/ml).” left out
as §2

MB-MDA-231 cells = test: TUNEL apoptosis assay of transfected MB-MDA-231 cells; format: cell-based, human; conditions: MB-MDA-231 (ER−)
Method: as §1, with “Transient transfection of other breast cancer cell lines were carried out similarly, except that the transfection reagent used was Lipofectamine 2000 (Life technologies). All other cells were transfected using Geneporter 2 (Gene Therapy Systems). When indicated, the following compounds were included in the medium: all-trans retinoic acid (100 nM), etopside (100 μM), zVAD-fmk (100 μM), zVDVAD-fmk (20 μM), TNFα (10 ng/ml) and cycloheximide (10 μg/ml).” left out
as §2

MB-MDA-435 cells = test: TUNEL apoptosis assay of transfected MB-MDA-435 cells; format: cell-based, human; conditions: MB-MDA-435 (ER−)
Method: as §1, with “Transient transfection of other breast cancer cell lines were carried out similarly, except that the transfection reagent used was Lipofectamine 2000 (Life technologies). All other cells were transfected using Geneporter 2 (Gene Therapy Systems). When indicated, the following compounds were included in the medium: all-trans retinoic acid (100 nM), etopside (100 μM), zVAD-fmk (100 μM), zVDVAD-fmk (20 μM), TNFα (10 ng/ml) and cycloheximide (10 μg/ml).” left out
as §2

[4] = test system: ER+ derivative of MB-MDA-231; test: TUNEL apoptosis assay of transfected ER+ derivative of MB-MDA-231; format: cell-based, human
Method: as §1, with “Transient transfection of other breast cancer cell lines were carried out similarly, except that the transfection reagent used was Lipofectamine 2000 (Life technologies). All other cells were transfected using Geneporter 2 (Gene Therapy Systems). When indicated, the following compounds were included in the medium: all-trans retinoic acid (100 nM), etopside (100 μM), zVAD-fmk (100 μM), zVDVAD-fmk (20 μM), TNFα (10 ng/ml) and cycloheximide (10 μg/ml).” left out
as §2

HBL100 cells = test: TUNEL apoptosis assay of transfected HBL100 cells; format: cell-based; conditions: HBL100, non-malignant immortalized breast epithelial cell line
Method: as §1, with “Transient transfection of other breast cancer cell lines were carried out similarly, except that the transfection reagent used was Lipofectamine 2000 (Life technologies). All other cells were transfected using Geneporter 2 (Gene Therapy Systems). When indicated, the following compounds were included in the medium: all-trans retinoic acid (100 nM), etopside (100 μM), zVAD-fmk (100 μM), zVDVAD-fmk (20 μM), TNFα (10 ng/ml) and cycloheximide (10 μg/ml).” left out
as §2

HeLa cells [5] = test: TUNEL apoptosis assay of transfected HeLa cells; format: cell-based
Method: as §1, with “Transient transfection of other breast cancer cell lines were carried out similarly, except that the transfection reagent used was Lipofectamine 2000 (Life technologies). All other cells were transfected using Geneporter 2 (Gene Therapy Systems). When indicated, the following compounds were included in the medium: all-trans retinoic acid (100 nM), etopside (100 μM), zVAD-fmk (100 μM), zVDVAD-fmk (20 μM), TNFα (10 ng/ml) and cycloheximide (10 μg/ml).” left out
as §2

293 = test: TUNEL apoptosis assay of transfected 293 cells; format: cell-based
Method: as §1, with “Transient transfection of other breast cancer cell lines were carried out similarly, except that the transfection reagent used was Lipofectamine 2000 (Life technologies). All other cells were transfected using Geneporter 2 (Gene Therapy Systems). When indicated, the following compounds were included in the medium: all-trans retinoic acid (100 nM), etopside (100 μM), zVAD-fmk (100 μM), zVDVAD-fmk (20 μM), TNFα (10 ng/ml) and cycloheximide (10 μg/ml).” left out
as §2

COS-1 = test: TUNEL apoptosis assay of transfected COS-1 cells; format: cell-based
Method: as §1, with “Transient transfection of other breast cancer cell lines were carried out similarly, except that the transfection reagent used was Lipofectamine 2000 (Life technologies). All other cells were transfected using Geneporter 2 (Gene Therapy Systems). When indicated, the following compounds were included in the medium: all-trans retinoic acid (100 nM), etopside (100 μM), zVAD-fmk (100 μM), zVDVAD-fmk (20 μM), TNFα (10 ng/ml) and cycloheximide (10 μg/ml).” left out
as §2

UOK-145 = test: TUNEL apoptosis assay of transfected UOK-145 cells; format: cell-based
Method: as §1, with “Transient transfection of other breast cancer cell lines were carried out similarly, except that the transfection reagent used was Lipofectamine 2000 (Life technologies). All other cells were transfected using Geneporter 2 (Gene Therapy Systems). When indicated, the following compounds were included in the medium: all-trans retinoic acid (100 nM), etopside (100 μM), zVAD-fmk (100 μM), zVDVAD-fmk (20 μM), TNFα (10 ng/ml) and cycloheximide (10 μg/ml).” left out
as §2

GH4C1 = test: TUNEL apoptosis assay of transfected GH4C1 cells; format: cell-based
Method: as §1, with “Transient transfection of other breast cancer cell lines were carried out similarly, except that the transfection reagent used was Lipofectamine 2000 (Life technologies). All other cells were transfected using Geneporter 2 (Gene Therapy Systems). When indicated, the following compounds were included in the medium: all-trans retinoic acid (100 nM), etopside (100 μM), zVAD-fmk (100 μM), zVDVAD-fmk (20 μM), TNFα (10 ng/ml) and cycloheximide (10 μg/ml).” left out
as §2

[6] = 100 uM inhibitor prior to and after transfection, T-47D

Question: What does the source list for `COC(=O)C[C@H](NC(=O)[C@H](C)NC(=O)[C@@H](NC(=O)OCc1ccccc1)C(C)C)C(=O)CF` [zVAD-fmk] (Cbz-Val-Ala-Asp(OMe)-CH2F)?
Answer: effect on apoptosis mediated by GFP-NRIF3 (T-47D cells [1]; [6]): did not inhibit apoptosis; effect on apoptosis mediated by GFPNLS-DD1 (T-47D cells [1]; [6]): did not inhibit apoptosis; cell death caused by inhibitor alone (T-47D cells [1]; T-47D, no transfected death construct, data not shown): did not cause cell death; effect on apoptosis of HeLa cells treated with TNFα and cycloheximide (HeLa cells [2]): significantly inhibit apoptosis

Question: How did the “effect of caspase-2 chemical inhibitor on DD1-induced apoptosis” value (T-47D cells [1]; T-47D, 20 μM in medium, data not shown) turn out when `COC(=O)C[C@H](NC(=O)[C@H](C)NC(=O)[C@@H](NC(=O)[C@H](CC(=O)OC)NC(=O)[C@@H](NC(=O)OCc1ccccc1)C(C)C)C(C)C)C(=O)CF` [zVDVAD-fmk] (Cbz-VD(OMe)VAD(OMe)-CH2F) was run?
Answer: efficiently blocked

Question: How did the “effect of co-expression on DD1-mediated apoptosis” value (T-47D cells [1]; co-expressed with GFPNLS-DD1 in T-47D) turn out when “Bcl-2: anti-apoptotic Bcl-2 family protein co-expressed from a vector” was run?
Answer: significantly inhibited

Question: Which results are given for “DD1: death domain 1, residues 20-50 of NRIF3 (SEQ ID NO:11), co-resides with transrepression domain RepD1 (PSKITRKKSVITYSPTTGTCQMSLFASPTSS; sequence of DD1)”?
Answer: induction of apoptosis (TUNEL and/or Annexin V) (T-47D cells [3]): efficient apoptosis; also recorded: underwent rapid apoptosis; induction of apoptosis (TUNEL and/or Annexin V) (T-47D cells [3]; listed as RepD1): efficiently induced death; sub-cellular location of AIF-GFP upon co-expression (AIF-GFP): translocation of AIF-GFP from mitochondria to the nucleus; induction of apoptosis (MCF-7 cells): efficient apoptosis; induction of apoptosis (MB-MDA-231 cells): efficient apoptosis; induction of apoptosis (MB-MDA-435 cells): efficient apoptosis; induction of apoptosis [4]: efficient apoptosis; induction of apoptosis (HBL100 cells): efficient apoptosis; induction of apoptosis (HeLa cells [5]): did not lead to apoptosis; also recorded: no detectable cell death; induction of apoptosis 293: did not lead to apoptosis; also recorded: no detectable cell death; induction of apoptosis (COS-1): did not lead to apoptosis; induction of apoptosis (UOK-145): did not lead to apoptosis; induction of apoptosis (GH4C1): did not lead to apoptosis
